Usually logP stands for a log measure of how a compound divides between an organic and an aqueous phase. A low value points to a more hydrophilic compound. The term solubility denotes the dissolved amount per volume that the medium holds. The logD is the decadic logarithm of the distribution of all forms, ionised or not, between an organic phase and buffer at a given pH. High values mean higher lipophilicity, low ones lower lipophilicity.

Values after ≈ are worked out from the molar mass of the structure shown. Where a SMILES comes first, the peptide text is derived from it.

Details in the first series: not given
As for `Clc1cc(Cl)c(-c2cc(Cl)c(Cl)cc2Cl)cc1Cl`, the log partition coefficient (logP) turned out to be 6.34. Still for that read-out and setting: next, `Cc1nc(N2CCOCC2)c(C#N)cc1-c1ccccc1`: 3.65; `O=[N+]([O-])c1ccc(Cl)c([N+](=O)[O-])c1`: 2.17; `O=CNc1nc(-c2ccc([N+](=O)[O-])o2)cs1`: -1.14. `O=C(O)c1ccccc1S(=O)(=O)O`: the solubility worked out at 2470 mM (≈ 500000 µg/mL). Regarding `CCC1(C2=CCCCCC2)C(=O)NC(=O)N(C)C1=O` (centres undefined), the logP worked out at 2.82. The same measure, in the same setting: next, `CC(C)C(C#N)c1ccc([N+](=O)[O-])cc1` (centres undefined): 2.8; `CCCCc1ccc(NC(=O)CN(CC(=O)O)CC(=O)O)cc1Br`: 0.1; `COC(=O)n1c(-c2cscn2)nc2ccccc21`: 2.05. On the same count and under the same terms, next, `ClC1=C(Cl)C2(Cl)C3C(Cl)C(Cl)(Cl)CC3C1(Cl)C2(Cl)Cl` (centres undefined): 6.2; `COC1=C(OC)C(=O)C=CC1=O`: 0.34. On the same count and under the same terms, next, `CC1=CCC2CC1C2(C)C` (centres undefined): 4.83; `O=[N+]([O-])c1cc(C2CCCCC2)c(O)c([N+](=O)[O-])c1`: 4.12. For `CC(=O)Nc1ccc2c(c1)Cc1cc([N+](=O)[O-])ccc1-2`, the logP is 3.08.

`O=c1nc[nH]c2c1ncn2[C@@H]1O[C@H](CO)C[C@@H]1F`: the logP is -1.21.

On to `NS(=O)(=O)c1nn2c(=Nc3ccc(Cl)cc3)snc2s1`, for which the logP was 3.63. On the same count and under the same terms, then `CCNc1nc(NCC)nc(SC)n1`, with 2.8; and `CCOC1OC2OC3(C)CCC4C(C)C(OC5OC(C(=O)O)C(O)C(O)C5O)CC(C1C)C24OO3` (centres undefined), with 0.61; and `CN(C)c1cccc([N+](=O)[O-])c1`, with 2.16. On the same count and under the same terms, next, `Clc1cc2c(Cl)c(Cl)c(Cl)c(Cl)c2c(Cl)c1Cl`: 8.2; `Cc1ccc(Br)c(C)c1NC(=O)CN(CC(=O)O)CC(=O)O`: -0.28; `O=C(O)CC[Se]Cc1ccccc1`: 1.67. The same measure, in the same setting: next, `CCCCC(OC(Cc1ccccc1)C(=O)N1CCC(OCOC)CC1)C(=O)NC(CC1CCCCC1)C(O)CC(C(=O)NCCCNC(C)=O)C(C)C` (centres undefined): 4.3; `CCC(C)C(NC(=O)c1cn(CC)c2nc(C)ccc2c1=O)C(=O)OC` (centres undefined): 3.15; `N[C@@H](Cc1cnc[nH]1)C(=O)O`: -3.32.

Compound `Cc1cc(Cl)c(Cl)cc1Cc1ccc(Cl)cc1Cl` yielded a lipophilicity (logP) of 7.41. The same measure, in the same setting: then `Cc1cc(=O)oc2cc(C3OC(C(=O)O)C(O)C(O)C3O)ccc12` (centres undefined), with -0.39; and `Cc1c(Cl)cccc1[N+](=O)[O-]`, with 3.09; and `COc1c2ccoc2cc2oc(=O)ccc12`, with 1.93. In the case of `O=[N+]([O-])c1ccc2c(c1)Cc1cc([N+](=O)[O-])ccc1-2`, the lipophilicity (logP) was determined as 3.35. On the same count and under the same terms, then `CC(O)CNc1ncc(-c2ccncc2)cc1C#N` (centres undefined), with 0.79; and `CC(C)(C)NSc1nc2ccccc2s1`, with 4.67; and `CCCN1C(=O)C(=Cc2ccc([N+](=O)[O-])o2)SC1=NC(C)=O`, with 1.17. In the case of `O=[N+]([O-])c1ccc(O)cc1C(F)(F)F`, the solubility was 24.1 mM (≈ 5000 µg/mL). In turn, `Clc1cccc2ccccc12` registered a logP of 4. On the same count and under the same terms, then `Nc1ccc([N+](=O)[O-])cn1`, with 0.65; and `CCn1cc(C(=O)O)c(=O)c2cc(F)c(N3CCNCC3)c(F)c21`, with -0.57; and `CCC(=O)n1ncc2c(O)ncnc21`, with 0.3.

`ClC1=C(Cl)C2(Cl)C3C(Cl)C=CC3C1(Cl)C2(Cl)Cl` (centres undefined) showed a log partition coefficient (logP) of 6.1. The same measure, in the same setting: next, `CC(C)COC(=O)c1cc(=O)[nH]c(=O)[nH]1`: 1.01; `CC(C)CCCCCCCOP(=O)(Oc1ccccc1)Oc1ccccc1`: 5.44. Still for that read-out and setting: next, `Nc1c(OC2C=CC(N3CCCCCC3=O)=CC2)cc(O)c2c1C(=O)c1ccccc1C2=O` (centres undefined): 5.3. Compound `c1ccc2c(c1)ccc1ccccc12` gave a solubility of 0.00645 mM (≈ 1.15 µg/mL). Compound `CC[C@H](C)[C@H](NC(=O)[C@@H](NC(=O)[C@@H](NC(C)=O)C(C)C)C(C)C)C(N)=O` (Ac-Val-Val-Ile-NH2) gave a logP of 0.49. Same read-out and setting: next, `Cc1cc(C)c(NC(=O)CN(CC(=O)O)CC(=O)O)c(C)c1Br`: 0.11; `Oc1ccc2c(c1)OCC1c3cc4c(cc3OC21)OCO4` (centres undefined): 2.61.

Consider `N#CCCCCCCCCC#N`, for which the logP amounted to 1.75. Same read-out and setting: then `O=c1[nH]c(=O)c2[nH]c(=O)[nH]c2[nH]1`, with -2.17; and `CCCCCCCCC`, with 5.65; and `CCCCC(=O)OCN1C(=O)NC(c2ccccc2)(c2ccccc2)C1=O`, with 3.9. On the same count and under the same terms, then `O=C1CC[C@@]2(O)[C@H]3Cc4ccc(O)c5c4[C@@]2(CCN3CC2CC2)[C@H]1O5`, with 1.92; and `CCCN(CCOc1c(Cl)cc(Cl)cc1Cl)C(=O)n1ccnc1`, with 4.1; and `OCC1CO1` (centres undefined), with -0.95. Consider `O=C(O)C(=O)Nc1nc(-c2ccc3c(c2)OCCO3)cs1`, for which the logP amounted to 1.8. `O=P(OC(Cl)CCCl)(OC(Cl)CCCl)OC(Cl)CCCl` (centres undefined) displayed a solubility of 0.232 mM (≈ 100 µg/mL). Take `CCC(=O)OC`: the logP was 0.84. Same read-out and setting: next, `C#CCN1C(=O)COc2cc(F)c(N3C(=O)C4=C(CCCC4)C3=O)cc21`: 2.55; `O=CC=Cc1ccc([N+](=O)[O-])o1`: 0.96; `OC(CN1C2CCOCC21)Cn1ccnc1` (centres undefined): 0.07. Same read-out and setting: next, `Cc1cnc2c(C(=O)O)c(Cl)ccc2c1`: 0.78; `c1ccc(CNc2[nH]cnc3ncnc2-3)cc1`: 1.57; `CCC(C)n1ncn(-c2ccc(N3CCN(c4ccc(OC[C@H]5CO[C@](Cn6cncn6)(c6ccc(Cl)cc6Cl)O5)cc4)CC3)cc2)c1=O` (some centres undefined): 5.66.

The compound `ClC1=C(Cl)C2(Cl)C(Cl)(Cl)C3CC(Cl)C1C3C2(Cl)Cl` (centres undefined) registered a lipophilicity (logP) of 6.09. As to `Cc1cccc(NC(=O)c2ccccc2C(=O)O)c1`, the solubility is 3.92 mM (≈ 1000 µg/mL).

For the compound `NC(=S)NN=Cc1ccc([N+](=O)[O-])o1`, the logP was 1.64. On the same count and under the same terms, then `OCC(CO)(CO)CO`, with -1.69; and `CN(CCN)S(=O)(=O)c1ccc(C(C)(C)[N+](=O)[O-])c([N+](=O)[O-])c1`, with 0.65. Same read-out and setting: next, `ClC1(Cl)C2(Cl)C3(Cl)C4(Cl)C(Cl)(Cl)C5(Cl)C3(Cl)C1(Cl)C5(Cl)C24Cl` (centres undefined): 6.89. Take `CC(=O)c1cc2c(cc1C)C(C)(C)C(C)CC2(C)C` (centres undefined): the logP is 5.7 and the solubility amounted to 0.00484 mM (≈ 1.25 µg/mL). On the same counts, the results for `Oc1ccc(Cl)cc1Cc1ccccc1` are 3.6 and 0.681 mM (≈ 149 µg/mL). Compound `COC(=O)c1cc2ccccc2o1` displayed a logP of 2.53. The same measure, in the same setting: next, `Brc1cc(Br)c(Oc2cc(Br)c(Br)c(Br)c2)cc1Br`: 7.4. Same read-out and setting: next, `N=C(N)NN=C1C=CC(=NNC(N)=O)C=C1`: 1.56; `Cc1ccc(C)c(NCc2cnc3nc(N)nc(N)c3c2C)c1`: 2.29; `Cc1ccc(C(=O)CS(=O)(=O)c2ccccc2)cc1`: 2.7.

Still in this series, the particulars now being: 20 °C.
On to `COCc1cnc(C2=NC(C)(C(C)C)C(=O)N2)c(C(=O)O)c1` (centres undefined), for which the solubility was 14.5 mM (≈ 4410 µg/mL). Still for that read-out and setting: next, `N=C(N)N`: 31.1 mM (≈ 1840 µg/mL); `CCc1cccc(C)c1N(C(=O)CCl)C(C)COC` (centres undefined): 1.87 mM (≈ 530 µg/mL). Still for that read-out and setting: then `CNC(=N)N`, with 24.4 mM (≈ 1780 µg/mL).

The same series, now with this note: 22 °C.
Compound `Clc1c(Cl)c(Cl)c2ccccc2c1Cl` gave a solubility of 1.6e-05 mM (≈ 0.00426 µg/mL). Consider `CN(C)C(=O)Nc1cccc(C(F)(F)F)c1`, for which the solubility was found to be 0.366 mM (≈ 85 µg/mL).

Staying with this series, now noted: 23.0 °C.
`c1ccc2c(c1)ccc1ccccc12`: the log10 OH rate constant (cm³/molecule/s) was -10.9.

Still in this series, the particulars now being: 24 °C.
`Clc1cc(Cl)c(-c2cc(Cl)c(Cl)cc2Cl)cc1Cl` came in with a solubility of 2.63e-06 mM (≈ 0.00095 µg/mL).

The same series, now with this note: 25 °C.
With `Oc1ccccc1Cl`, the solubility is 87.9 mM (≈ 11300 µg/mL). Same read-out and setting: then `CC(Br)CBr` (centres undefined), with 7.15 mM (≈ 1440 µg/mL). On the same count and under the same terms, then `Cc1ccccc1C`, with 1.68 mM (≈ 178 µg/mL). On the same count and under the same terms, next, `COC(C)(C)CC(C)=O`: 2150 mM (≈ 280000 µg/mL); `Nc1ccc(Cc2ccc(N)cc2)cc1`: 5.04 mM (≈ 1000 µg/mL).

The compound `ClC/C=C/CCl` came in with a solubility of 5.27 mM (≈ 659 µg/mL). The same measure, in the same setting: then `ClCOCCl`, with 191 mM (≈ 22000 µg/mL); and `CC(F)(F)Cl`, with 13.9 mM (≈ 1400 µg/mL). For the compound `Nc1ccccc1Cl`, the solubility was found to be 64 mM (≈ 8160 µg/mL). Compound `ClC1=C(Cl)C2(Cl)C3C(Cl)C=CC3C1(Cl)C2(Cl)Cl` (centres undefined) returned a solubility of 0.000482 mM (≈ 0.18 µg/mL). On the same count and under the same terms, then `Clc1cccc2cccc(Cl)c12`, with 0.0016 mM (≈ 0.315 µg/mL). The compound `C=C(C)C(=O)OCC(C)C` came in with a solubility of 9.14 mM (≈ 1300 µg/mL). The same measure, in the same setting: next, `CCOC(=O)N(C)N=O`: 280 mM (≈ 37000 µg/mL); `C=C(Cl)CCl`: 19.4 mM (≈ 2150 µg/mL); `CCCCOC(=O)COc1ccc(Cl)cc1Cl`: 0.166 mM (≈ 46 µg/mL). On the same count and under the same terms, then `c1ccc2c(c1)[nH]c1ccccc12`, with 0.0108 mM (≈ 1.8 µg/mL); and `CCC(=O)OC`, with 708 mM (≈ 62400 µg/mL); and `C#CCN1C(=O)COc2cc(F)c(N3C(=O)C4=C(CCCC4)C3=O)cc21`, with 0.00505 mM (≈ 1.79 µg/mL). The same measure, in the same setting: next, `Clc1ccc(-c2ccc(Cl)c(Cl)c2Cl)cc1Cl`: 1.04e-05 mM (≈ 0.0034 µg/mL); `CCCCCCCCCCCCCC`: 1.97e-05 mM (≈ 0.00391 µg/mL); `Cc1c2ccccc2c(C)c2c1ccc1ccccc12`: 0.000152 mM (≈ 0.039 µg/mL). Take `Brc1cc(Br)c(OCCOc2c(Br)cc(Br)cc2Br)c(Br)c1`: the solubility turned out to be 0.000291 mM (≈ 0.2 µg/mL). The same measure, in the same setting: next, `O=C(O)C1CCCCC1`: 35.9 mM (≈ 4600 µg/mL); `CS`: 320 mM (≈ 15400 µg/mL). The same measure, in the same setting: then `CCOC(=O)[C@H](CCc1ccccc1)N[C@@H](C)C(=O)N1CCC[C@H]1C(=O)O`, with 43.6 mM (≈ 16400 µg/mL).

The series is the same for the next values; noted with them: 25.0 °C.
Regarding `c1ccc2c(c1)Oc1ccccc1O2`, the log10 OH rate constant (cm³/molecule/s) was -10.9. As to `CC1(C)C2CCC(=O)C1C2` (centres undefined), the log10 OH rate constant (cm³/molecule/s) is -10.8. The same measure, in the same setting: then `Cc1ccccc1C`, with -10.9; and `CCNc1nc(Cl)nc(NC(C)(C)C)n1`, with -11. Same read-out and setting: then `OCCOCCO`, with -10.5; and `C=C1CCC2(C(C)C)CC12` (centres undefined), with -9.93; and `CCNC(=O)OCC`, with -10.8. On the same count and under the same terms, then `O=C1C=CC(=O)c2ccccc21`, with -11.5; and `CCCCBr`, with -11.6; and `FC(C(F)(F)F)C(F)(F)F`, with -14.8.

For `FC(F)Br`, the log10 OH rate constant (cm³/molecule/s) is -14. On the same count and under the same terms, next, `CCOC(F)(F)C(F)F`: -12.6. On the same count and under the same terms, then `CC1OCCO1`, with -11.

Still in this series, the particulars now being: pH 7.4.
As for `COc1c(C)c2c(c(O)c1C/C=C(\C)CCC(=O)OCCN1CCOCC1)C(=O)OC2`, the logD is 2.38.
